Assay results taken from US7910729B2, “Azulenyl nitrone spin trapping agents, methods of making and using same” (The Florida International University Board of Trustees, priority 2004, dated 2011).

Experiments:
[1] = test system: lipopolysaccharide (LPS) administered to rats; conditions: cited from earlier work
[2] = test system: human diploid fibroblast cells; conditions: cited from earlier work
[3] = test system: aged animal model; conditions: daily intraperitoneal injection, male and female populations; cited from earlier work
[4] = test system: aged rats; conditions: chronic treatment; cited from earlier work
[5] = Antioxidant assay: AIBN-initiated oxidation of cumene to cumene hydroperoxide, followed by 1H NMR; format: physicochemical; conditions: atmospheric oxygen, 37° C., FIG. 1
Procedure: In the following example, comparative testing of the antioxidant activity of azulenyl nitrone compounds of the invention against a control, was performed. The assay was based on the well-established oxidation of cumene to cumene hydroperoxide by atmospheric oxygen at 37° C. in the presence of the free radical initiator AIBN (Blanchard, H. S. J. Am. Chem. Soc. (1959) 81:4548; Characterization of products formed during the autoxidation of beta carotene. Handelman, G. J., van Kujik, F. J. G. M., Chatterjee, A., Krinsky, N. I. Free Rad. Biol. Med. (1991) 10: 427-37). The progress of the peroxidation reaction is conveniently followed and quantified by 1H NMR spectroscopy by monitoring the appearance and increasing integration of the singlet arising from the methyl groups of cumene hydroperoxide. The use of a long, low power, selective pulse (Shaped radiofrequency pulses in high resolution NMR. Freeman, R. J. Prog. Nuc. Mag. Spec. (1998) 32:59) allowed the growth of the cumene hydroperoxide methyl group singlet to be accurately measured in the presence of a huge excess of cumene. This was shown by using known concentrations of commercially available cumene hydroperoxide to calibrate the peak areas.

[6] = aqueous solution at pH 7 and 20° C.; cited from earlier work

COC=Cc1cc(/C=C/c2cc(/C=[N+](\[O-])C(C)(C)C)c3cc(C(C)C)ccc(C)c2-3)c2c(C)ccc(C(C)C)cc1-2 [I]
melting point: 235 °C (dec.)

CC1(C)Cc2ccccc2C=[N+]1[O-] [MDL 101,002]
LPS-induced leukopenia [1]: failed to prevent leukopenia | LPS-induced pulmonary edema [1]: prevented pulmonary edema | LPS-induced thrombocytopenia [1]: partially reduced thrombocytopenia | organ dysfunction and cytokine secretion induced by LPS [1]: reduces

CC(C)(C)[N+]([O-])=Cc1ccccc1 [PBN, alpha-phenyl N-tert-butylnitrone]
onset of senescence [2]: effectively delayed the onset of senescence | lifespan [3]: remarkable extension of the lifespan | age-related changes in cognitive performance [4]: benefit (i.e., improve)

Cc1ccc(C(C)C)cc2c(/C=[N+](\[O-])C(C)(C)C)cc(/C=C/c3cc(/C=[N+](\[O-])C(C)(C)C)c4cc(C(C)C)ccc(C)c3-4)c1-2 [STAZN, Stilbazulenyl Nitrone]
potency as nitrone-based chain breaking antioxidants / free-radical scavenging/antioxidant activity [5]: remarkable potency

Cc1ccc(C(C)C)cc2c(C=C3SCCCS3)cc(/C=C/c3cc(/C=[N+](\[O-])C(C)(C)C)c4cc(C(C)C)ccc(C)c3-4)c1-2 [STNXY]
potency as nitrone-based chain breaking antioxidants / free-radical scavenging/antioxidant activity [5]: remarkable potency

Cc1c(C)c2c(c(C)c1O)CC[C@@](C)(CCC[C@H](C)CCC[C@H](C)CCCC(C)C)O2 [vitamin E, alpha-tocopherol]
one-electron oxidative potential (vs. NHE) [6]: 0.48 V | age-related changes in cognitive performance [4]: benefit (i.e., improve)
